Reference: patent US20110135763A1, “Antiseptic formulation especially for prevention of complications associated with skin burns” (priority 2009, published 2011)

Columns and labels:
[1] = tested on: small capillaries; experiment: inventor's experiments on the effect of DMSO on blood vessels; conditions: DMSO in a concentration ranging between 50% and 100%; best results at substantially 100%
Excerpt: The higher the DMSO concentration was taken, the better result was achieved. Such phenomenon may effectively contribute to stopping leakage of capillaries and formation of blister, whereas the leakage and blister are the major factors leading to infections and delayed wound healing, and therefore to scar formation. […] The best results have been observed for usage of DMSO in the concentration of substantially 100%.
(d) DMSO (dimethyl sulfoxide) is known as an industrial solvent that has the ability to penetrate plant and animal tissues and to preserve living cells during freezing. It has bacteriostatic, anti-inflammatory, analgesic, radioprotective, fibrinolytic and vasodilative properties, and inhibits cholinesterase and granulation tissue. DMSO also has been used as an agent to increase the penetrability of other substances. […] This capability of DMSO has increased with an increase of the DMSO concentration, and the best results have been observed for usage of DMSO (USP grade) in the concentration essentially of 100%.

[2] = target: T1, Human Leukocyte Elastase (Homo sapiens, UniProt P08246); conditions: Q. Ying et al., 1991; cited from earlier work
T1 sequence (P08246 30-267): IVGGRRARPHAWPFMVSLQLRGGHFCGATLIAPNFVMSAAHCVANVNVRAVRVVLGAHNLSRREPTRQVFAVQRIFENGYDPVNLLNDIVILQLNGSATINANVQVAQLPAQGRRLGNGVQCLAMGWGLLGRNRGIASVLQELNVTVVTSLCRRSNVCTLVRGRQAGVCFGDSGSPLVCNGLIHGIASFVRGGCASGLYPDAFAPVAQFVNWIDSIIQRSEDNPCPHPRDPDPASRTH

Structure (SMILES): C[S+](C)[O-] [DMSO, dimethyl sulfoxide]
- effect on small capillaries [1]: constricts small capillaries

Structure (SMILES): C[C@H]1[C@H](C)CC[C@]2(C(=O)O)CC[C@]3(C)C(=CC[C@@H]4[C@@]5(C)CC[C@H](O)C(C)(C)[C@@H]5CC[C@]43C)[C@H]12 [Ursolic acid]
- elastase inhibition [2]: potent elastase inhibitor
